# Columns and labels:
# [1] = tested on: Puccinia recondita f. sp. Tritici; assay: Fungicidal activity against Puccinia recondita f. sp. Tritici / wheat / leaf disc preventative (brown rust); assay type: in vivo; details: foliar, 200 ppm in the applied formulation, wheat leaf segments cv. Kanzler, inoculated 1 day after application, vs untreated control, read-out: disease control
# Summary of the method: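 Compound, diluted from DMSO solution into aqueous 0.025% Tween20, is sprayed at 200 ppm onto cut wheat segments (cv. Kanzler) placed on water agar. One day on, segments receive a fungal spore suspension and are incubated at 19° C., 75% rh, 12 h photoperiod, with % control vs untreated scored at 7–9 days.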
# [2] = tested on: Glomerella lagenarium (Colletotrichum lagenarium); assay: Fungicidal activity against Glomerella lagenarium (Colletotrichum lagenarium) liquid culture / cucumber / preventative (anthracnose); assay type: cell-based; details: Colletotrichum orbiculare, 72 h; 20 ppm in the applied formulation; liquid culture (PDB), growth inhibition measured photometrically 3 to 4 days after application; vs untreated control; read-out: disease control
# Summary of the method: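 Test compound in DMSO is placed in a microtiter plate, then potato dextrose broth containing conidia from cryogenic storage is added. Incubation runs at 24° C., and growth inhibition is read photometrically after 3 to 4 days.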
# Phakopsora pachyrhizi = assay: Fungicidal activity against Phakopsora pachyrhizi / soybean / leaf disc preventative (Asian soybean rust); assay type: in vivo; details: foliar, 200 ppm in the applied formulation, soybean leaf disks, vs untreated control, read-out: disease control
# Summary of the method: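 Preventative test: compound sprayed onto soybean leaf discs one day before spore inoculation of the lower leaf face. Incubation at 20 °C and 75% rh, first 24-36 h in darkness, then a 12 h light cycle. Disease control versus untreated discs read 12-14 days after application.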
# [3] = tested on: Puccinia recondita f. sp. Tritici; assay: Fungicidal activity against Puccinia recondita f. sp. Tritici / wheat / leaf disc curative (brown rust); assay type: in vivo; details: foliar, 24 h, 200 ppm in the applied formulation, wheat leaf segments cv. Kanzler, applied 1 day after inoculation, vs untreated control, read-out: disease control
# Experimental: Leaf disks or leaf segments of various plant species are cut from plants grown in a greenhouse. The cut leaf disks or segments are placed in multiwell plates (24-well format) onto water agar. The leaf disks are sprayed with a test solution before (preventative) or after (curative) inoculation. Compounds to be tested are prepared as DMSO solutions (max. 10 mg/ml) which are diluted to the appropriate concentration with 0.025% Tween20 just before spraying. The inoculated leaf disks or segments are incubated under defined conditions (temperature, relative humidity, light, etc.) according to the respective test system. A single evaluation of disease level is carried out 3 to 14 days after inoculation, depending on the pathosystem. Percent disease control relative to the untreated check leaf disks or segments is then calculated.
# Wheat leaf segments cv. Kanzler are placed on agar in multiwell plates (24-well format). The leaf segments are then inoculated with a spore suspension of the fungus. Plates were stored in darkness at 19° C. and 75% relative humidity. The formulated test compound diluted in water was applied 1 day after inoculation. The leaf segments were incubated at 19° C. and 75% relative humidity under a light regime of 12 hours light/12 hours darkness in a climate cabinet and the activity of a compound was assessed as percent disease control compared to untreated when an appropriate level of disease damage appears in untreated check leaf segments (6 to 8 days after application).
# The following compounds at 200 ppm in the applied formulation give at least 80% disease control in this test when compared to untreated control leaf disks under the same conditions, which show extensive disease development.
melting point [°C],SMILES,pest or weed control at 200 ppm [1] [%],inhibition of growth at 20 ppm [2] [%],pest or weed control at 200 ppm (Phakopsora pachyrhizi) [%],pest or weed control at 200 ppm [3] [%]
132 to 134,"CON=CC(C)NC(=O)c1ccc(-c2noc(C(F)(F)F)n2)cc1F (stereo not drawn) [Compound 1.155, 2-fluoro-N-(2-methoxyimino-1-methyl-ethyl)-4-[5-(trifluoromethyl)-1,2,4-oxadiazol-3-yl]benzamide]",≥ 80,≥ 80,≥ 80,–
173 to 174,"CCO/N=C\C(C)NC(=O)c1ccc(-c2noc(C(F)(F)F)n2)cc1 (stereo not drawn) [Compound 1.9, N-[(2Z)-2-ethoxyimino-1-methyl-ethyl]-4-[5-(trifluoromethyl)-1,2,4-oxadiazol-3-yl]benzamide]",≥ 80,≥ 80,≥ 80,≥ 80
132 to 136,"CCON=CCCNC(=O)c1ccc(-c2noc(C(F)(F)F)n2)cc1 [Compound 1.153, N-(3-ethoxyiminopropyl)-4-[5-(trifluoromethyl)-1,2,4-oxadiazol-3-yl]benzamide]",≥ 80,≥ 80,≥ 80,≥ 80
142 to 143,"CCO/N=C/C(C)NC(=O)c1ccc(-c2noc(C(F)(F)F)n2)cc1 (stereo not drawn) [Compound 1.8, N-[(2E)-2-ethoxyimino-1-methyl-ethyl]-4-[5-(trifluoromethyl)-1,2,4-oxadiazol-3-yl]benzamide]",≥ 80,≥ 80,≥ 80,≥ 80
97 to 99,"CCON=CCCNC(=O)c1ccc(-c2noc(C(F)(F)F)n2)cc1F [Compound 1.162, N-(3-ethoxyiminopropyl)-2-fluoro-4-[5-(trifluoromethyl)-1,2,4-oxadiazol-3-yl]benzamide]",≥ 80,≥ 80,≥ 80,≥ 80
119 to 121,"CON=CC(C)NC(=O)c1ccc(-c2noc(C(F)(F)F)n2)c(F)c1 (stereo not drawn) [Compound 1.159, 3-fluoro-N-(2-methoxyimino-1-methyl-ethyl)-4-[5-(trifluoromethyl)-1,2,4-oxadiazol-3-yl]benzamide]",≥ 80,≥ 80,≥ 80,≥ 80
120 to 122,"CON=CCNC(=O)c1ccc(-c2noc(C(F)(F)F)n2)c(F)c1 [Compound 1.166, 3-fluoro-N-(2-methoxyimino-ethyl)-4-[5-(trifluoromethyl)-1,2,4-oxadiazol-3-yl]benzamide]",≥ 80,≥ 80,≥ 80,≥ 80
151 to 152,"CO/N=C(/C)CNC(=O)c1ccc(-c2noc(C(F)(F)F)n2)cc1 [Compound 1.14, N-[(2Z)-2-methoxyimino-propyl]-4-[5-(trifluoromethyl)-1,2,4-oxadiazol-3-yl]benzamide]",≥ 80,≥ 80,≥ 80,≥ 80
120 to 124,"CCON=C(C)CNC(=O)c1ccc(-c2noc(C(F)(F)F)n2)c(F)c1 [Compound 1.165, N-(2-ethoxyiminopropyl)-3-fluoro-4-[5-(trifluoromethyl)-1,2,4-oxadiazol-3-yl]benzamide]",≥ 80,≥ 80,≥ 80,≥ 80
164 to 165,"CON=CC(C)NC(=O)c1ccc(-c2noc(C(F)(F)F)n2)cc1 (stereo not drawn) [Compound 1.3, N-(2-methoxyimino-1-methyl-ethyl)-4-[5-(trifluoromethyl)-1,2,4-oxadiazol-3-yl]benzamide]",≥ 80,≥ 80,≥ 80,≥ 80
156 to 158,"CCON=CCNC(=O)c1ccc(-c2noc(C(F)(F)F)n2)cc1 [Compound 1.11, N-(2-ethoxyiminoethyl)-4-[5-(trifluoromethyl)-1,2,4-oxadiazol-3-yl]benzamide]",≥ 80,≥ 80,≥ 80,≥ 80
108 to 110,"CCON=CCCNC(=O)c1ccc(-c2noc(C(F)(F)F)n2)c(F)c1 [Compound 1.161, N-(3-ethoxyiminopropyl)-3-fluoro-4-[5-(trifluoromethyl)-1,2,4-oxadiazol-3-yl]benzamide]",≥ 80,≥ 80,≥ 80,≥ 80
122 to 124,"CC(C)ON=CCCNC(=O)c1ccc(-c2noc(C(F)(F)F)n2)cc1 [Compound 1.168, N-(3-isopropoxyimino-propyl)-4-[5-(trifluoromethyl)-1,2,4-oxadiazol-3-yl]benzamide]",≥ 80,≥ 80,≥ 80,≥ 80
60 to 62,"CO/N=C/CN(C(=O)c1ccc(-c2noc(C(F)(F)F)n2)cc1)C1CC1 [Compound 1.170, N-cyclopropyl-N-[(2E)-2-methoxyiminoethyl]-4-[5-(trifluoromethyl)-1,2,4-oxadiazol-3-yl]benzamide]",–,–,–,–
116 to 118,"CON=CCNC(=O)c1ccc(-c2noc(C(F)(F)F)n2)cc1F [Compound 1.169, 2-fluoro-N-(2-methoxyimino-ethyl)-4-[5-(trifluoromethyl)-1,2,4-oxadiazol-3-yl]benzamide]",–,–,–,–
–,"CC(C=NOC1COC1)NC(=O)c1ccc(-c2noc(C(F)(F)F)n2)cc1 (stereo not drawn) [Compound 1.58, N-[1-methyl-2-(oxetan-3-yloxyimino)ethyl]-4-[5-(trifluoromethyl)-1,2,4-oxadiazol-3-yl]benzamide]",≥ 80,≥ 80,≥ 80,≥ 80
–,"CC(C=NOCC=CCl)NC(=O)c1ccc(-c2noc(C(F)(F)F)n2)cc1 (stereo not drawn) [Compound 1.33, N-[2-(3-chloroallyloxy-imino)-1-methyl-ethyl]-4-[5-(trifluoromethyl)-1,2,4-oxadiazol-3-yl]benzamide]",≥ 80,≥ 80,≥ 80,≥ 80
–,"CC(C=NOCCO)NC(=O)c1ccc(-c2noc(C(F)(F)F)n2)cc1 (stereo not drawn) [Compound 1.15, N-[2-(2-hydroxyethoxy-imino)-1-methyl-ethyl]-4-[5-(trifluoromethyl)-1,2,4-oxadiazol-3-yl]benzamide]",≥ 80,≥ 80,≥ 80,≥ 80
–,"O=C(NCC=NOCCO)c1ccc(-c2noc(C(F)(F)F)n2)cc1 [Compound 1.60, N-[2-(2-hydroxyethoxy-imino)ethyl]-4-[5-(trifluoromethyl)-1,2,4-oxadiazol-3-yl]benzamide]",≥ 80,≥ 80,≥ 80,≥ 80
113 to 115,"CCON=CC(C)NC(=O)c1ccc(-c2noc(C(F)(F)F)n2)cc1F (stereo not drawn) [Compound 1.156, N-(2-ethoxyimino-1-methyl-ethyl)-2-fluoro-4-[5-(trifluoromethyl)-1,2,4-oxadiazol-3-yl]benzamide]",–,≥ 80,≥ 80,≥ 80
–,"CC(CNC(=O)c1ccc(-c2noc(C(F)(F)F)n2)cc1)=NOC1CCCCO1 (stereo not drawn) [Compound 1.114, N-(2-tetrahydropyran-2-yloxyiminopropyl)-4-[5-(trifluoromethyl)-1,2,4-oxadiazol-3-yl]benzamide]",≥ 80,≥ 80,≥ 80,≥ 80

# Source: US11192867B2, “Microbiocidal oxadiazole derivatives” (SYNGENTA PARTICIPATIONS AG, priority 2016, dated 2021)
